# Results reported in ChEMBL document CHEMBL3822454, “On the vasoprotective mechanisms underlying novel β-phosphorylated nitrones: Focus on free radical characterization, scavenging and NO-donation in a biological model of oxidative stress” (Eur J Med Chem, 2016).
# Active and inactive are the calls of the source. The rule behind the calls is not given here.
# Test system: not listed separately
# Assay: Cytotoxicity against BAECs assessed as decrease in total intracellular LDH content at 15 mM measured after 3 hrs by LDH assay relative to vehicle control
# Type: cell-based, Bos taurus
# Parameters: scale not given: the % may be the effect or the level left
# Conditions: cattle, baec, 15000 µM
row,SMILES,Activity [%]
1,CCOP(=O)(OCC)C(C)(C)/[N+]([O-])=C/c1ccc(O)c(O)c1,28
2,CCOP(=O)(OCC)C(C)(C)/[N+]([O-])=C/c1ccc(O)cc1,18
3,CCOP(=O)(OCC)C(C)(C)/[N+]([O-])=C/c1ccccc1O,21
4,CCOP(=O)(OCC)C(C)(C)/[N+]([O-])=C/c1ccccc1[N+](=O)[O-],54
5,CCOP(=O)(OCC)C(C)(C)/[N+]([O-])=C/c1ccc(O)c(OC)c1,23

# Test system: Aorta
# Assay: Potentiation of SNP-induced vasorelaxant activity in Sprague-Dawley rat endothelium-intact aortic rings assessed as reduction in L-phenylephrine hydrochloride-induced contraction at 200 uM relative to SNP
# Type: functional
# Conditions: not given
row,SMILES,Rmax [%]
1,CCOP(=O)(OCC)C(C)(C)/[N+]([O-])=C/c1ccc(O)c(O)c1,103
2,CCOP(=O)(OCC)C(C)(C)/[N+]([O-])=C/c1ccc(O)cc1,99
3,CCOP(=O)(OCC)C(C)(C)/[N+]([O-])=C/c1ccccc1O,99
4,CCOP(=O)(OCC)C(C)(C)/[N+]([O-])=C/c1ccccc1[N+](=O)[O-],100
5,CCOP(=O)(OCC)C(C)(C)/[N+]([O-])=C/c1ccc(O)c(OC)c1,100

# Test system: Aorta
# Assay: Vasoprotective activity against oxidative stress-induced impairment of ACh-stimulated vasorelaxation in Sprague-Dawley rat endothelium-intact aortic rings assessed as reduction in L-phenylephrine hydrochloride-induced contraction preincubated for 10 to 20 mins in presence of xanthine-xanthine oxidase system prior to L-phenylephrine hydrochloride addition
# Type: functional
# Conditions: not given
row,SMILES,EC50 [µM]
1,CCOP(=O)(OCC)C(C)(C)/[N+]([O-])=C/c1ccc(O)c(O)c1,0.0407
2,CCOP(=O)(OCC)C(C)(C)/[N+]([O-])=C/c1ccc(O)c(OC)c1,0.0537

# Test system: Aorta
# Assay: Vasoprotective activity against oxidative stress-induced impairment of ACh-stimulated vasorelaxation in Sprague-Dawley rat endothelium-intact aortic rings assessed as reduction in L-phenylephrine hydrochloride-induced contraction preincubated for 10 to 20 mins in presence of xanthine-xanthine oxidase system at 200 uM prior to L-phenylephrine hydrochloride addition relative to ACh
# Type: functional
# Conditions: not given
row,SMILES,Rmax [%]
1,CCOP(=O)(OCC)C(C)(C)/[N+]([O-])=C/c1ccc(O)c(O)c1,93
2,CCOP(=O)(OCC)C(C)(C)/[N+]([O-])=C/c1ccc(O)c(OC)c1,86

# Test system: Aorta
# Assay: Protection against NADPH-induced superoxide-mediated tissue damage in Sprague-Dawley rat endothelium-intact aortic rings assessed as inhibition of protein carbonyl formation at 200 uM pre-incubated for 30 mins in presence of DTC prior to NADPH addition measured after 60 mins using 7-hydrazino-4-nitrobenzo-2,1,3-oxadiazole by fluorimetric analysis
# Type: functional
# Conditions: not given
row,SMILES,inhibition
1,CCOP(=O)(OCC)C(C)(C)/[N+]([O-])=C/c1ccc(O)c(O)c1,Active
2,CCOP(=O)(OCC)C(C)(C)/[N+]([O-])=C/c1ccc(O)cc1,Active
3,CCOP(=O)(OCC)C(C)(C)/[N+]([O-])=C/c1ccc(O)c(OC)c1,Active

# Test system: Aorta
# Assay: Protection against NADPH-induced superoxide-mediated tissue damage in Sprague-Dawley rat endothelium-intact aortic rings assessed as decomposition of methyl radical adduct preincubated for 30 mins at 200 uM in presence of DTC prior to NADPH addition after 60 mins followed by renewal of media with NADPH-compound mixture measured after 4 days by EPR spectroscopy relative to control
# Type: functional
# Conditions: not given
row,SMILES,Activity [%]
1,CCOP(=O)(OCC)C(C)(C)/[N+]([O-])=C/c1ccc(O)c(O)c1,< 5
2,CCOP(=O)(OCC)C(C)(C)/[N+]([O-])=C/c1ccc(O)cc1,< 5
3,CCOP(=O)(OCC)C(C)(C)/[N+]([O-])=C/c1ccc(O)c(OC)c1,< 5

# Test system: Aorta
# Assay: Protection against superoxide-mediated tissue damage in Sprague-Dawley rat endothelium-intact aortic rings assessed as methyl radical adduct formation preincubated for 30 mins at 200 uM in presence of DTC measured after 4 days by EPR spectroscopy
# Type: functional
# Conditions: not given
row,SMILES,Activity
1,CCOP(=O)(OCC)C(C)(C)/[N+]([O-])=C/c1ccc(O)c(O)c1,inactive
2,CCOP(=O)(OCC)C(C)(C)/[N+]([O-])=C/c1ccc(O)cc1,inactive
3,CCOP(=O)(OCC)C(C)(C)/[N+]([O-])=C/c1ccc(O)c(OC)c1,inactive

# Test system: not listed separately
# Assay: Induction of nitric oxide release in water using Fe2+-MGD2 as nitric oxide trap at pH 6.56 measured 70 mins post UV-photolysis in dark condition by EPR spectroscopy
# Type: physicochemical
# Conditions: buffer, pH 6.56, 70 min
row,SMILES,Activity
1,CCOP(=O)(OCC)C(C)(C)/[N+]([O-])=C/c1ccccc1[N+](=O)[O-],Active

# Test system: not listed separately
# Assay: Cytotoxicity against BAEC assessed as decrease in total intracellular LDH content at 15 mM measured after 1 hr by LDH assay relative to vehicle-treated control
# Type: cell-based, Bos taurus
# Parameters: scale not given: the % may be the effect or the level left
# Conditions: cattle, 15000 µM
row,SMILES,Activity [%]
1,CCOP(=O)(OCC)C(C)(C)/[N+]([O-])=C/c1ccc(O)c(O)c1,< 10
2,CCOP(=O)(OCC)C(C)(C)/[N+]([O-])=C/c1ccc(O)cc1,< 10
3,CCOP(=O)(OCC)C(C)(C)/[N+]([O-])=C/c1ccccc1O,< 10
4,CCOP(=O)(OCC)C(C)(C)/[N+]([O-])=C/c1ccccc1[N+](=O)[O-],< 10
5,CCOP(=O)(OCC)C(C)(C)/[N+]([O-])=C/c1ccc(O)c(OC)c1,< 10

# Test system: Aorta
# Assay: Toxicity in Sprague-Dawley rat endothelium-intact aortic rings at 15 mM measured after 20 mins
# Conditions: 15000 µM
row,SMILES,Activity
1,CCOP(=O)(OCC)C(C)(C)/[N+]([O-])=C/c1ccc(O)c(O)c1,Non-toxic
2,CCOP(=O)(OCC)C(C)(C)/[N+]([O-])=C/c1ccc(O)cc1,Non-toxic
3,CCOP(=O)(OCC)C(C)(C)/[N+]([O-])=C/c1ccccc1O,Non-toxic
4,CCOP(=O)(OCC)C(C)(C)/[N+]([O-])=C/c1ccccc1[N+](=O)[O-],Non-toxic
5,CCOP(=O)(OCC)C(C)(C)/[N+]([O-])=C/c1ccc(O)c(OC)c1,Non-toxic

# Test system: Aorta
# Assay: Protection against NADPH-induced superoxide-mediated tissue damage in Sprague-Dawley rat endothelium-intact aortic rings assessed as methyl radical adduct formation pre-incubated for 30 mins at 200 uM in presence of DTC prior to NADPH addition measured after 60 mins followed by renewal of media with NADPH-compound mixture measured after 20 mins in presence of DPI by EPR spectroscopy
# Type: functional
# Conditions: not given
row,SMILES,Activity
1,CCOP(=O)(OCC)C(C)(C)/[N+]([O-])=C/c1ccc(O)c(O)c1,inactive
2,CCOP(=O)(OCC)C(C)(C)/[N+]([O-])=C/c1ccc(O)cc1,inactive
3,CCOP(=O)(OCC)C(C)(C)/[N+]([O-])=C/c1ccc(O)c(OC)c1,inactive

# Test system: not listed separately
# Assay: Antioxidant activity assessed as DPPH scavenging activity measured after 3 mins by spectrophotometric method
# Type: physicochemical
# Conditions: not given
row,SMILES,EC50 [µM]
1,CCOP(=O)(OCC)C(C)(C)/[N+]([O-])=C/c1ccc(O)c(O)c1,22
2,CCOP(=O)(OCC)C(C)(C)/[N+]([O-])=C/c1ccc(O)cc1,> 1000
3,CCOP(=O)(OCC)C(C)(C)/[N+]([O-])=C/c1ccccc1O,> 1000
4,CCOP(=O)(OCC)C(C)(C)/[N+]([O-])=C/c1ccccc1[N+](=O)[O-],> 1000
5,CCOP(=O)(OCC)C(C)(C)/[N+]([O-])=C/c1ccc(O)c(OC)c1,254

# Test system: not listed separately
# Assay: Antioxidant activity assessed as AAPH free radical scavenging activity measured as trolox equivalent by TRAP assay
# Type: physicochemical
# Conditions: not given
row,SMILES,Activity [equiv]
1,CCOP(=O)(OCC)C(C)(C)/[N+]([O-])=C/c1ccc(O)c(O)c1,2.22
2,CCOP(=O)(OCC)C(C)(C)/[N+]([O-])=C/c1ccc(O)cc1,0.65
3,CCOP(=O)(OCC)C(C)(C)/[N+]([O-])=C/c1ccccc1O,0.25
4,CCOP(=O)(OCC)C(C)(C)/[N+]([O-])=C/c1ccccc1[N+](=O)[O-],0.02
5,CCOP(=O)(OCC)C(C)(C)/[N+]([O-])=C/c1ccc(O)c(OC)c1,1.91

# Test system: not listed separately
# Assay: Antioxidant activity assessed as inhibition of […]-xanthine oxidase system-mediated superoxide formation measured over 7 mins by lucigenin-based chemiluminescence analysis
# Type: physicochemical
# Conditions: not given
row,SMILES,IC50 [µM]
1,CCOP(=O)(OCC)C(C)(C)/[N+]([O-])=C/c1ccc(O)c(O)c1,0.2
2,CCOP(=O)(OCC)C(C)(C)/[N+]([O-])=C/c1ccc(O)cc1,60.8
3,CCOP(=O)(OCC)C(C)(C)/[N+]([O-])=C/c1ccccc1O,33.5
4,CCOP(=O)(OCC)C(C)(C)/[N+]([O-])=C/c1ccccc1[N+](=O)[O-],30
5,CCOP(=O)(OCC)C(C)(C)/[N+]([O-])=C/c1ccc(O)c(OC)c1,28.6

# Molecular target: Xanthine dehydrogenase/oxidase (Homo sapiens, UniProt P47989)
# Sequence (P47989 whole entry): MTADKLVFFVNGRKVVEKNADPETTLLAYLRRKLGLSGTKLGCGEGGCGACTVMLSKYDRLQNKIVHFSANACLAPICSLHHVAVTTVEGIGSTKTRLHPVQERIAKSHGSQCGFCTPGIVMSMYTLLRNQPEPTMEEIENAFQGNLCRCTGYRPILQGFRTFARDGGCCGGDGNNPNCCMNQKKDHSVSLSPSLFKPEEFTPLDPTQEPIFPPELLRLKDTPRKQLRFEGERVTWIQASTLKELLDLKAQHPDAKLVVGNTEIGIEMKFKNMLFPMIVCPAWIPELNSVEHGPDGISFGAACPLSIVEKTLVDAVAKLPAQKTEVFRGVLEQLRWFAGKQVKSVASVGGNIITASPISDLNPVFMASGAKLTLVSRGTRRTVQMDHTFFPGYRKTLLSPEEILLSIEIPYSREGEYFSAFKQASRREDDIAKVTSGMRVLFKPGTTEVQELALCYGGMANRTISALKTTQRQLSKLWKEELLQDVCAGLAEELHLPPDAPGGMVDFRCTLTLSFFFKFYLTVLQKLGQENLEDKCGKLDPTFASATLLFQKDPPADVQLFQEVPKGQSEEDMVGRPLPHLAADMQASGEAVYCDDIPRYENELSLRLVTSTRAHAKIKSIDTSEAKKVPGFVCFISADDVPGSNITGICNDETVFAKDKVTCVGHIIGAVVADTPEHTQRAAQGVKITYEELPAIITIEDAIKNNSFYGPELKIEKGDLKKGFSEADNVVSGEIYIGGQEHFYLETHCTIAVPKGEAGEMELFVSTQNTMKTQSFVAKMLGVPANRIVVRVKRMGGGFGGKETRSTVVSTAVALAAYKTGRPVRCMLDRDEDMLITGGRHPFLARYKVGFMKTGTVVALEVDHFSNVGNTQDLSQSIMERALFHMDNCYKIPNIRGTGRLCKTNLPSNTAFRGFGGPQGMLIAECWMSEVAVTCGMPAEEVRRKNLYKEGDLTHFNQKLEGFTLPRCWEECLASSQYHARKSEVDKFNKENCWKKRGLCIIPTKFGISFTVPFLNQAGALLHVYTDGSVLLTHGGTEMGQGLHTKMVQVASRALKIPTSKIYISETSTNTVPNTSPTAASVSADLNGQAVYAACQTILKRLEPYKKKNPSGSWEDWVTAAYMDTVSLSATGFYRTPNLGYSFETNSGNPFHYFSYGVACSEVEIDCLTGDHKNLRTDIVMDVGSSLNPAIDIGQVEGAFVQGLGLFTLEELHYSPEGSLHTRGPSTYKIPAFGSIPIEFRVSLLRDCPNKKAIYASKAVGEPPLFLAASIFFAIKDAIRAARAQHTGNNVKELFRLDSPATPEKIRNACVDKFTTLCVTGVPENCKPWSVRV
# Assay: Inhibition of xanthine oxidase (unknown origin) using xanthine as substrate assessed as inhibition of uric acid formation at 1 to 100 uM after 30 mins by spectrophotometric method
# Conditions: 0.5 h
row,SMILES,inhibition (INH)
1,CCOP(=O)(OCC)C(C)(C)/[N+]([O-])=C/c1ccc(O)c(O)c1,Not Active
2,CCOP(=O)(OCC)C(C)(C)/[N+]([O-])=C/c1ccc(O)cc1,Not Active
3,CCOP(=O)(OCC)C(C)(C)/[N+]([O-])=C/c1ccccc1O,Not Active
4,CCOP(=O)(OCC)C(C)(C)/[N+]([O-])=C/c1ccccc1[N+](=O)[O-],Not Active
5,CCOP(=O)(OCC)C(C)(C)/[N+]([O-])=C/c1ccc(O)c(OC)c1,Not Active

# Test system: A549
# Assay: Cytotoxicity against human A549 cells assessed as reduction in cell viability measured after 48 hrs by FMCA assay
# Type: cell-based
# Conditions: A549, 48 h
row,SMILES,IC50 [µM]
1,CCOP(=O)(OCC)C(C)(C)/[N+]([O-])=C/c1ccc(O)c(O)c1,1900
2,CCOP(=O)(OCC)C(C)(C)/[N+]([O-])=C/c1ccc(O)cc1,10500
3,CCOP(=O)(OCC)C(C)(C)/[N+]([O-])=C/c1ccccc1O,8200
4,CCOP(=O)(OCC)C(C)(C)/[N+]([O-])=C/c1ccccc1[N+](=O)[O-],2200
5,CCOP(=O)(OCC)C(C)(C)/[N+]([O-])=C/c1ccc(O)c(OC)c1,6400

# Test system: A549
# Assay: Cytotoxicity against human A549 cells assessed as reduction in cell viability measured after 48 hrs by luminescence-based ATP assay
# Conditions: A549, 48 h
row,SMILES,IC50 [µM]
1,CCOP(=O)(OCC)C(C)(C)/[N+]([O-])=C/c1ccc(O)c(O)c1,1900
2,CCOP(=O)(OCC)C(C)(C)/[N+]([O-])=C/c1ccc(O)cc1,12400
3,CCOP(=O)(OCC)C(C)(C)/[N+]([O-])=C/c1ccccc1O,9300
4,CCOP(=O)(OCC)C(C)(C)/[N+]([O-])=C/c1ccccc1[N+](=O)[O-],1400
5,CCOP(=O)(OCC)C(C)(C)/[N+]([O-])=C/c1ccc(O)c(OC)c1,4300

# Test system: A549
# Assay: Cytotoxicity against human A549 cells assessed as reduction in cell viability measured after 48 hrs by MTT assay
# Type: cell-based
# Conditions: A549, 48 h
row,SMILES,IC50 [µM]
1,CCOP(=O)(OCC)C(C)(C)/[N+]([O-])=C/c1ccc(O)c(O)c1,1300
2,CCOP(=O)(OCC)C(C)(C)/[N+]([O-])=C/c1ccc(O)cc1,13000
3,CCOP(=O)(OCC)C(C)(C)/[N+]([O-])=C/c1ccccc1O,9000
4,CCOP(=O)(OCC)C(C)(C)/[N+]([O-])=C/c1ccccc1[N+](=O)[O-],1300
5,CCOP(=O)(OCC)C(C)(C)/[N+]([O-])=C/c1ccc(O)c(OC)c1,3900

# Test system: not listed separately
# Assay: Cytotoxicity against BAEC assessed as reduction in cell viability measured after 24 hrs by MTT assay
# Parameters: species or system Bos taurus
# Conditions: cattle
row,SMILES,IC10 [µM]
1,CCOP(=O)(OCC)C(C)(C)/[N+]([O-])=C/c1ccc(O)c(O)c1,500
2,CCOP(=O)(OCC)C(C)(C)/[N+]([O-])=C/c1ccc(O)cc1,1600
3,CCOP(=O)(OCC)C(C)(C)/[N+]([O-])=C/c1ccccc1O,1400
4,CCOP(=O)(OCC)C(C)(C)/[N+]([O-])=C/c1ccccc1[N+](=O)[O-],< 100
5,CCOP(=O)(OCC)C(C)(C)/[N+]([O-])=C/c1ccc(O)c(OC)c1,700
